In ChEMBL document CHEMBL3046891, “Potent antimalarial activity of newly synthesized substituted chalcone analogs in vitro” (Med Chem Res, 2009) one finds IC50 data, which are given here for eleven compounds.

In brackets after ≈: the same amount, converted by molar mass.

The test relates to Plasmodium falciparum. In words: Antimalarial activity against blood-stage Plasmodium falciparum 3D7 after 48 hr by Giemsa staining method. It counts as functional, organism-based. As to conditions: 3D7, 48 h.
Regarding `COc1cc(/C=C/C(=O)c2ccc(-n3ccnc3)cc2)cc(OC)c1OC`, the IC50 (as a rule, the concentration that inhibits the measured activity by half) is 2.48 µg/mL (≈ 6.81 µM).

In the case of `COc1ccc(/C=C/C(=O)c2ccc(N3CCOCC3)cc2)cc1`, the IC50 is 7.9 µg/mL (≈ 24.4 µM). The compound `COc1cc(/C=C/C(=O)c2ccc(N3CCCC3)cc2)cc(OC)c1OC` yielded a concentration for half-maximal inhibition (IC50) of 13 µg/mL (≈ 35.4 µM). `COc1cc(/C=C/C(=O)c2ccc(N3CCCC3)cc2)cc(OC)c1` had an IC50 of 8.43 µg/mL (≈ 25 µM). For the compound `COc1ccc(/C=C/C(=O)c2ccc(N3CCCCC3)cc2)cc1OC`, the half-inhibitory concentration (IC50) was 3.13 µg/mL (≈ 8.91 µM). The figure for `O=C(/C=C/c1cc2ccccc2nc1Cl)c1ccc(N2CCOCC2)cc1` is 17 µg/mL (≈ 45 µM); for `COc1ccc(/C=C/C(=O)c2ccc(N3CCCC3)cc2)cc1` it is 6.3 µg/mL (≈ 20.5 µM). The same measure for `COc1ccc(/C=C/C(=O)c2ccc(-n3cncn3)cc2)cc1`: 4.56 µg/mL (≈ 14.9 µM); for `COc1ccc(/C=C/C(=O)c2ccc(-n3cccc3)cc2)cc1`: 1.61 µg/mL (≈ 5.31 µM). The same measure for `COc1cc(/C=C/C(=O)c2ccc(-n3cccc3)cc2)cc(OC)c1OC`: 2.03 µg/mL (≈ 5.59 µM); for `COc1cc(/C=C/C(=O)c2ccc(N3CCNCC3)cc2)cc(OC)c1OC`: 9 µg/mL (≈ 23.5 µM).
